Laboratory results reported in ChEMBL document CHEMBL3627698, “Selective inhibition of PARP10 using a chemical genetics strategy” (Bioorg Med Chem Lett, 2015).

Legend:
[1] = molecular target: Poly [ADP-ribose] polymerase 1 (Homo sapiens, UniProt P09874); test: Inhibition of PARP1 (unknown origin) by fluorescence analysis
[2] = molecular target: Protein mono-ADP-ribosyltransferase PARP10 (Homo sapiens, UniProt Q53GL7, L926G); test: Inhibition of PARP-10 L926G mutant (unknown origin) mediated ADP-ribosylation of SRPK2 by fluorescence analysis using 3 uM SRPK2 as a substrate
[3] = molecular target: T1, Protein mono-ADP-ribosyltransferase PARP10 (Homo sapiens, UniProt Q53GL7); test: Inhibition of PARP-10 (unknown origin) mediated ADP-ribosylation of SRPK2 by fluorescence analysis using 3 uM SRPK2 as a substrate
T1 sequence (Q53GL7 whole entry): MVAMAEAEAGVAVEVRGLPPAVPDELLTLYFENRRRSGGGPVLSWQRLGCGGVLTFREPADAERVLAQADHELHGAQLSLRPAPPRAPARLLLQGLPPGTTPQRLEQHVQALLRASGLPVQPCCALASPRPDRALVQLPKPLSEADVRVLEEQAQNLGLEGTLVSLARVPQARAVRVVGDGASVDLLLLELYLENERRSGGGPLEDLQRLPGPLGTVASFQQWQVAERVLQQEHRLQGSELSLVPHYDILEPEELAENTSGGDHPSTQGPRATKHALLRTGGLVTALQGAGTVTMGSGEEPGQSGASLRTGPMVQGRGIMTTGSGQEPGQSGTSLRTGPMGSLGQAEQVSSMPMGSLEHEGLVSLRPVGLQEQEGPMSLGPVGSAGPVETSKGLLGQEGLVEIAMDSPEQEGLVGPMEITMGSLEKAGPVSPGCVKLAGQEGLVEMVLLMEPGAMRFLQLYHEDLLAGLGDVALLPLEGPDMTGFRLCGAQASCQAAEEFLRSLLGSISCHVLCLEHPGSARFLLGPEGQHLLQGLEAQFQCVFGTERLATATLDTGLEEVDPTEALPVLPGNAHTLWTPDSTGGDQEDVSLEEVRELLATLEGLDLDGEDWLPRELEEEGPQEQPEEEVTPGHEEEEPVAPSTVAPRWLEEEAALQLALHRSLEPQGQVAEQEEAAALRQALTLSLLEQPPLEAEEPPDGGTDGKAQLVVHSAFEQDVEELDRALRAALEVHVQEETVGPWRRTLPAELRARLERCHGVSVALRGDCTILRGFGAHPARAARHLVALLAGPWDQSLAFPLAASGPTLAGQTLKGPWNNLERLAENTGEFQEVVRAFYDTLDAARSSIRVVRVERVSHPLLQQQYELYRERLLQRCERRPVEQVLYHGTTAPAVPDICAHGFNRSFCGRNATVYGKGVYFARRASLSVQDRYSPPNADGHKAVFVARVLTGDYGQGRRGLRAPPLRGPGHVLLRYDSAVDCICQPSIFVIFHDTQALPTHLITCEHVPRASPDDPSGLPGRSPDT

Chain of Poly [ADP-ribose] polymerase 1 (P09874 whole entry): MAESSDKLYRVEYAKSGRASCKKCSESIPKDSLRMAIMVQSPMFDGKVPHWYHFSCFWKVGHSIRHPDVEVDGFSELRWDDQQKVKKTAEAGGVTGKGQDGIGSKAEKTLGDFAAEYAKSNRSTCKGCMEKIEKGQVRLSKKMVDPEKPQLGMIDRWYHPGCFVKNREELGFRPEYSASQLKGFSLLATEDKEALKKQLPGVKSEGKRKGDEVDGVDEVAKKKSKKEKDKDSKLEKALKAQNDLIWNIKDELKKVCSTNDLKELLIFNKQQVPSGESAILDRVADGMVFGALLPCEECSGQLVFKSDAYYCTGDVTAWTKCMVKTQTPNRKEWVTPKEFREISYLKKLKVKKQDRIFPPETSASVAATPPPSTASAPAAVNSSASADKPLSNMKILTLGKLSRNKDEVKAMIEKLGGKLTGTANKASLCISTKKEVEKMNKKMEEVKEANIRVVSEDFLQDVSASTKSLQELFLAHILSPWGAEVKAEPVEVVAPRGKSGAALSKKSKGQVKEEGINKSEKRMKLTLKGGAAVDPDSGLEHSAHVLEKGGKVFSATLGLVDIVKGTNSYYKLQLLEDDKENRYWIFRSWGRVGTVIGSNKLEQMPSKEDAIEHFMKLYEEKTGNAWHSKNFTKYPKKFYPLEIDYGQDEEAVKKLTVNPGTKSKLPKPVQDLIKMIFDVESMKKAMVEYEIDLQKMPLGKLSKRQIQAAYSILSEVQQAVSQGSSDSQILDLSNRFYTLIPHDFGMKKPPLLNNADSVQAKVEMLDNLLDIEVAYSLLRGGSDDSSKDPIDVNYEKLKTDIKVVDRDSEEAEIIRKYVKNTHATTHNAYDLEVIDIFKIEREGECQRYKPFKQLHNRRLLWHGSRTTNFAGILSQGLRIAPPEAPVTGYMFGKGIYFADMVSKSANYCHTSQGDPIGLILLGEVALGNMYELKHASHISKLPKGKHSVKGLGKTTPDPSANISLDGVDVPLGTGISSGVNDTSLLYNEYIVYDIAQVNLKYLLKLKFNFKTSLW
Chain of Protein mono-ADP-ribosyltransferase PARP10 (Homo sapiens, UniProt Q53GL7, L926G) (Q53GL7 whole entry L926G): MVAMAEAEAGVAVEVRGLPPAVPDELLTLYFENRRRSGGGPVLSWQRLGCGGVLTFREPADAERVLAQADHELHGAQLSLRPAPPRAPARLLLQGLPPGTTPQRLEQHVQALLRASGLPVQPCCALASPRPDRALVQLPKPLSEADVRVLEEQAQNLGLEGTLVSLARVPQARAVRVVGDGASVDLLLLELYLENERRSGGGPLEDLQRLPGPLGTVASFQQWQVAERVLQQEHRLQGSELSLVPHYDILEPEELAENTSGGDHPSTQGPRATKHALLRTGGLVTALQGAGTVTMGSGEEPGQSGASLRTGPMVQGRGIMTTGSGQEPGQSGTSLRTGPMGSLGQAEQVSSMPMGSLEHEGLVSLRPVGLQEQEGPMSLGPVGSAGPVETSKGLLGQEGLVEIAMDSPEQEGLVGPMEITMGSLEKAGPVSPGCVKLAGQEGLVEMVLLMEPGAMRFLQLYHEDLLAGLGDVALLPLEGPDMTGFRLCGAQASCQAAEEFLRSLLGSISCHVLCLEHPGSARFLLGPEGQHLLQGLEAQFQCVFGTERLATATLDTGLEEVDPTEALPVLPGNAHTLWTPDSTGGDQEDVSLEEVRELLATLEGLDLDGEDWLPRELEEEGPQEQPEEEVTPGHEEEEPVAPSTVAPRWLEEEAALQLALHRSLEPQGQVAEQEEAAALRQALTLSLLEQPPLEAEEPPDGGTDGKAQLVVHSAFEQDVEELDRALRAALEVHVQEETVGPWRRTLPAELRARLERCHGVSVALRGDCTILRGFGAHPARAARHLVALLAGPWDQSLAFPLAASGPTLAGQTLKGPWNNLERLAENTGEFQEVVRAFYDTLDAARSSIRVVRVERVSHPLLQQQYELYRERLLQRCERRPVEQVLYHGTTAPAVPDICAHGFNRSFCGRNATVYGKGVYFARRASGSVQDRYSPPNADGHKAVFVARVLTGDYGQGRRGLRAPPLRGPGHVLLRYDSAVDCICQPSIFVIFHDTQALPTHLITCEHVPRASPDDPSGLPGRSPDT

| SMILES | IC50 [1] [µM] | IC50 [2] [µM] | IC50 [3] [µM] |
| --- | --- | --- | --- |
| COc1ccc2c(c1)C(=O)NCC2 | > 100 | 172 | > 100 |
| O=C1NCCc2ccc(O)cc21 |  | > 30 |  |
| O=C1NCCc2ccc(C(F)(F)F)cc21 | > 100 | 65.5 | > 100 |
| Cc1ccc2c(c1)C(=O)NCC2 | > 100 | 112 | > 100 |
| O=C1NCCc2ccc(Cl)cc21 | 100 | 16.2 | > 100 |
| O=C1NCCc2ccc(Br)cc21 | > 100 | 8.6 | > 100 |
